Test: logP by HPLC on a C18 phase inversion column, EEC Directive 79/831 Annex V.A8, method b) (HP1100, 5-95% acetonitrile in 1.70 min)
Assay type: physicochemical
Conditions: HPLC method b)
Procedure: ^b) Note regarding the determination of the log P values and mass detection: The log P values given were determined in accordance with EEC Directive 79/831 Annex V.A8 by HPLC (High Performance Liquid Chromatography) on a phase inversion column (C18). HP1100; 50*4.6 Zorbax Eclipse Plus C18 1.8 micron; eluent A: acetonitrile (0.1% formic acid); eluent B: water (0.08% formic acid); linear gradient from 5% acetonitrile to 95% acetonitrile in 1.70 min, then 95% acetonitrile for a further 1.00 min; oven temperature 55° C.; flow: 2.0 ml/min. The mass detection is carried out via the mass detector Micromass ZQ2000 from Waters.

Structure (SMILES)	logP
Cn1nc(C(F)(F)C(F)(F)F)c(C(F)(F)F)c1C(=O)Nc1ccc(Cl)c(C(=O)NC2CC2(F)F)c1 (centres unmarked) [Ik-6]	3.33^b)
Cn1nc(C(F)(F)C(F)(F)F)c(C(F)(F)F)c1C(=O)Nc1ccc(Cl)c(C(=O)NCc2ncn[nH]2)c1 [Ik-29]	2.31^b)
CCCNC(=O)c1cc(NC(=O)c2c(C(F)(F)F)c(C(F)(F)C(F)(F)F)nn2C)ccc1Cl [Ik-30]	3.23^b)
CN(C(=O)c1cc(NC(=O)c2c(C(F)(F)F)c(C(F)(F)C(F)(F)F)nn2C)ccc1Cl)C1CC1 [Ik-31]	3.51^b)
Cn1nc(C(F)(F)C(F)(F)F)c(C(F)(F)F)c1C(=O)Nc1ccc(Cl)c(C(=O)NC2COC2)c1 [Ik-32]	2.76^b)
CC(O)CNC(=O)c1cc(NC(=O)c2c(C(F)(F)F)c(C(F)(F)C(F)(F)F)nn2C)ccc1Cl (centres unmarked) [Ik-33]	2.65^b)
COC(=O)CNC(=O)c1cc(NC(=O)c2c(C(F)(F)F)c(C(F)(F)C(F)(F)F)nn2C)ccc1Cl [Ik-34]	3.04^b)
CC(C)N(C)C(=O)c1cc(NC(=O)c2c(C(F)(F)F)c(C(F)(F)C(F)(F)F)nn2C)ccc1Cl [Ik-35]	3.73^b)
Cn1nc(C(F)(F)C(F)(F)F)c(C(F)(F)F)c1C(=O)Nc1ccc(Cl)c(C(=O)NCc2c(F)cccc2F)c1 [Ik-37]	3.73^b)
CC(NC(=O)c1cc(NC(=O)c2c(C(F)(F)F)c(C(F)(F)C(F)(F)F)nn2C)ccc1Cl)c1ccccc1 (centres unmarked) [Ik-38]	3.89^b)
Cn1nc(C(F)(F)C(F)(F)F)c(C(F)(F)F)c1C(=O)Nc1ccc(Cl)c(C(=O)NC2CCCC2)c1 [Ik-39]	3.78^b)
Cn1nc(C(F)(F)C(F)(F)F)c(C(F)(F)F)c1C(=O)Nc1ccc(Cl)c(C(=O)NCCc2ccc(Cl)cc2)c1 [Ik-40]	4.23^b)
Cn1nc(C(F)(F)C(F)(F)F)c(C(F)(F)F)c1C(=O)Nc1ccc(Cl)c(C(=O)NCC(C)(C)CF)c1 [Ik-42]	3.68^b)
Cn1nc(C(F)(F)C(F)(F)F)c(C(F)(F)F)c1C(=O)Nc1ccc(Cl)c(C(=O)NCc2ccon2)c1 [Ik-43]	3.02^b)
Cn1nc(C(F)(F)C(F)(F)F)c(C(F)(F)F)c1C(=O)Nc1ccc(Cl)c(C(=O)NC(C)(C)C=C(Cl)Cl)c1 [Ik-44]	4.28^b)
Cn1nc(C(F)(F)C(F)(F)F)c(C(F)(F)F)c1C(=O)Nc1ccc(Cl)c(C(=O)NCC2(C)COC2)c1 [Ik-45]	2.98^b)
Cn1nc(C(F)(F)C(F)(F)F)c(C(F)(F)F)c1C(=O)Nc1ccc(Cl)c(C(=O)NCC2CC2(C)C)c1 (centres unmarked) [Ik-46]	4.11^b)
Cn1nc(C(F)(F)C(F)(F)F)c(C(F)(F)F)c1C(=O)Nc1ccc(Cl)c(C(=O)NC2CC2c2ccccc2)c1 (centres unmarked) [Ik-47]	4.00^b)
Cn1nc(C(F)(F)C(F)(F)F)c(C(F)(F)F)c1C(=O)Nc1ccc(Cl)c(C(=O)NCC#N)c1 [Ik-48]	2.93^b)
Cn1nc(C(F)(F)C(F)(F)F)c(C(F)(F)F)c1C(=O)Nc1ccc(Cl)c(C(=O)NCc2cccc(F)c2)c1 [Ik-49]	3.78^b)
C=C(C)CNC(=O)c1cc(NC(=O)c2c(C(F)(F)F)c(C(F)(F)C(F)(F)F)nn2C)ccc1Cl [Ik-50]	3.53^b)
Cn1nc(C(F)(F)C(F)(F)F)c(C(F)(F)F)c1C(=O)Nc1ccc(Cl)c(C(=O)NCc2ccccc2F)c1 [Ik-52]	3.73^b)

Structure (SMILES)	logP
CCOCCNC(=O)c1cc(NC(=O)c2c(C(F)(F)F)c(C(F)(F)C(F)(F)F)nn2C)ccc1Cl [Ik-53]	3.28^b)
Cn1nc(C(F)(F)C(F)(F)F)c(C(F)(F)F)c1C(=O)Nc1ccc(Cl)c(C(=O)NCc2cc(F)ccc2F)c1 [Ik-54]	3.84^b)
Cn1nc(C(F)(F)C(F)(F)F)c(C(F)(F)F)c1C(=O)Nc1ccc(Cl)c(C(=O)NC(C2CC2)C2CC2)c1 [Ik-61]	4.00^b)
Cc1c(C(F)(F)C(F)(F)F)nn(C)c1C(=O)Nc1ccc(Cl)c(C(=O)NCc2ccccc2)c1 [Ik-271]	3.42^b)
CCc1c(C(F)(F)C(F)(F)F)nn(C)c1C(=O)Nc1ccc(Cl)c(C(=O)NCc2ccccc2)c1 [Ik-272]	3.68^b)
Cn1nc(C(F)(F)C(F)(F)F)c(C(F)(F)F)c1C(=O)Nc1ccc(Cl)c(C(=O)NCc2nc(C(F)(F)F)cs2)c1 [Ik-273]	3.75^b)
Cn1nc(C(F)(F)C(F)(F)F)c(C(F)(F)F)c1C(=O)Nc1ccc(Cl)c(C(=O)NC(C)(C)C#N)c1 [Ik-274]	3.37^b)
COCC(C)(C#N)NC(=O)c1cc(NC(=O)c2c(C(F)(F)F)c(C(F)(F)C(F)(F)F)nn2C)ccc1Cl (centres unmarked) [Ik-275]	3.37^b)
Cn1cc(C(F)(F)F)nc1C(NC(=O)c1cc(NC(=O)c2c(C(F)(F)F)c(C(F)(F)C(F)(F)F)nn2C)ccc1Cl)C(F)(F)F (centres unmarked) [Ik-276]	4.00^b)
Cc1csc(C(NC(=O)c2cc(NC(=O)c3c(C(F)(F)F)c(C(F)(F)C(F)(F)F)nn3C)ccc2Cl)C(F)(F)F)n1 (centres unmarked) [Ik-277]	4.00^b)
Cn1nc(C(F)(F)C(F)(F)F)c(C(F)(F)F)c1C(=O)Nc1ccc(Cl)c(C(=O)NC2C=CS(=O)(=O)C2)c1 (centres unmarked) [Ik-278]	2.80^b)
C[C@H]1C[C@H]1NC(=O)c1cc(NC(=O)c2c(C(F)(F)F)c(C(F)(F)C(F)(F)F)nn2C)ccc1Cl [Ik-279]	3.37^b)
Cn1nc(C(F)(F)C(F)(F)F)c(C(F)(F)F)c1C(=O)Nc1ccc(Cl)c(C(=O)NCCOCC(F)(F)F)c1 [Ik-281]	3.53^b)
Cn1nc(C(F)(F)C(F)(F)F)c(C(F)(F)F)c1C(=O)Nc1ccc(Cl)c(C(=O)NCc2ccccc2Cl)c1 [Ik-282]	4.05^b)
Cn1nc(C(F)(F)C(F)(F)F)c(C(F)(F)F)c1C(=O)Nc1ccc(Cl)c(C(=O)NCc2ccc(Cl)cc2)c1 [Ik-283]	4.05^b)
CC(NC(=O)c1cc(NC(=O)c2c(C(F)(F)F)c(C(F)(F)C(F)(F)F)nn2C)ccc1Cl)c1ccccc1F (centres unmarked) [Ik-284]	4.00^b)
Cn1nc(C(F)(F)C(F)(F)F)c(C(F)(F)F)c1C(=O)Nc1ccc(Cl)c(C(=O)NC2CCOCC2)c1 [Ik-285]	3.06^b)
CCC1CC1NC(=O)c1cc(NC(=O)c2c(C(F)(F)F)c(C(F)(F)C(F)(F)F)nn2C)ccc1Cl (centres unmarked) [Ik-286]	3.84^b)
Cn1nc(C(F)(F)C(F)(F)F)c(C(F)(F)F)c1C(=O)Nc1ccc(Cl)c(C(=O)NC2CC=CC2)c1 [Ik-287]	3.63^b)
CC(NC(=O)c1cc(NC(=O)c2c(C(F)(F)F)c(C(F)(F)C(F)(F)F)nn2C)ccc1Cl)C1(Cl)CC1 (centres unmarked) [Ik-288]	4.05^b)
CSCC(C)(C)NC(=O)c1cc(NC(=O)c2c(C(F)(F)F)c(C(F)(F)C(F)(F)F)nn2C)ccc1Cl [Ik-289]	4.05^b)
CC(CF)NC(=O)c1cc(NC(=O)c2c(C(F)(F)F)c(C(F)(F)C(F)(F)F)nn2C)ccc1Cl (centres unmarked) [Ik-290]	3.28^b)

Structure (SMILES)	logP
Cn1nc(C(F)(F)C(F)(F)F)c(C(F)(F)F)c1C(=O)Nc1ccc(Cl)c(C(=O)NCCC(F)(F)F)c1 [Ik-291]	3.53^b)
CC(C#N)NC(=O)c1cc(NC(=O)c2c(C(F)(F)F)c(C(F)(F)C(F)(F)F)nn2C)ccc1Cl (centres unmarked) [Ik-292]	3.02^b)
C#CC(C)NC(=O)c1cc(NC(=O)c2c(C(F)(F)F)c(C(F)(F)C(F)(F)F)nn2C)ccc1Cl (centres unmarked) [Ik-293]	3.28^b)
C[C@H](NC(=O)c1cc(NC(=O)c2c(C(F)(F)F)c(C(F)(F)C(F)(F)F)nn2C)ccc1Cl)C(F)(F)F [Ik-294]	3.63^b)
C/C(Cl)=C/CNC(=O)c1cc(NC(=O)c2c(C(F)(F)F)c(C(F)(F)C(F)(F)F)nn2C)ccc1Cl [Ik-295]	3.73^b)
Cn1nc(C(F)(F)C(F)(F)F)c(C(F)(F)F)c1C(=O)Nc1ccc(Cl)c(C(=O)NC2(C(F)(F)F)CC2)c1 [Ik-296]	3.58^b)
CCC(NC(=O)c1cc(NC(=O)c2c(C(F)(F)F)c(C(F)(F)C(F)(F)F)nn2C)ccc1Cl)C(F)(F)F (centres unmarked) [Ik-297]	3.89^b)
CCCC(NC(=O)c1cc(NC(=O)c2c(C(F)(F)F)c(C(F)(F)C(F)(F)F)nn2C)ccc1Cl)C(F)(F)F (centres unmarked) [Ik-298]	4.11^b)
CC(CC(F)(F)F)NC(=O)c1cc(NC(=O)c2c(C(F)(F)F)c(C(F)(F)C(F)(F)F)nn2C)ccc1Cl (centres unmarked) [Ik-299]	3.63^b)
Cn1nc(C(F)(F)C(F)(F)F)c(C(F)(F)F)c1C(=O)Nc1ccc(Cl)c(C(=O)NC(C)(C)CC(F)(F)F)c1 [Ik-300]	4.00^b)
Cn1nc(C(F)(F)C(F)(F)F)c(C(F)(F)F)c1C(=O)Nc1ccc(Cl)c(C(=O)NC(C)(C)CS(C)(=O)=O)c1 [Ik-301]	3.02^b)
Cn1nc(C(F)(F)C(F)(F)F)c(C(F)(F)F)c1C(=O)Nc1ccc(Cl)c(C(=O)NCC(F)(F)C(F)(F)F)c1 [Ik-302]	3.78^b)
CC(NC(=O)c1cc(NC(=O)c2c(C(F)(F)F)c(C(F)(F)C(F)(F)F)nn2C)ccc1Cl)c1cccc(F)c1 (centres unmarked) [Ik-303]	3.89^b)
Cc1cccc(CNC(=O)c2cc(NC(=O)c3c(C(F)(F)F)c(C(F)(F)C(F)(F)F)nn3C)ccc2Cl)c1 [Ik-304]	3.94^b)
Cc1ccccc1CNC(=O)c1cc(NC(=O)c2c(C(F)(F)F)c(C(F)(F)C(F)(F)F)nn2C)ccc1Cl [Ik-305]	3.89^b)
Cc1ccc(CNC(=O)c2cc(NC(=O)c3c(C(F)(F)F)c(C(F)(F)C(F)(F)F)nn3C)ccc2Cl)cc1 [Ik-306]	3.94^b)
C[C@@H](NC(=O)c1cc(NC(=O)c2c(C(F)(F)F)c(C(F)(F)C(F)(F)F)nn2C)ccc1Cl)C(F)(F)F [Ik-307]	3.78^b)
Cn1nc(C(F)(F)C(F)(F)F)c(C(F)(F)F)c1C(=O)Nc1ccc(Cl)c(C(=O)NCc2ccc(F)cc2F)c1 [Ik-308]	3.94^b)
Cn1nc(C(F)(F)C(F)(F)F)c(C(F)(F)F)c1C(=O)Nc1ccc(Cl)c(C(=O)NCc2ccc(F)c(F)c2)c1 [Ik-309]	3.94^b)
CC(C)[C@H](NC(=O)c1cc(NC(=O)c2c(C(F)(F)F)c(C(F)(F)C(F)(F)F)nn2C)ccc1Cl)C(F)(F)F [Ik-310]	3.89^b)
Cn1nc(C(F)(F)C(F)(F)F)c(C(F)(F)F)c1C(=O)Nc1ccc(Cl)c(C(=O)NC2CC2F)c1 (centres unmarked) [Ik-311]	3.28^b)
